# Key:
# Assay type in all cases: cell-based
# [1] = system: human immortalized epidermal cells; assay: Cytotoxicity test (MTT) of human immortalized epidermal cells; details: samples containing cannabis seed oil
# Experimental: Human immortalized epidermal cells at a logarithmic phase were collected, the concentration of the cell suspension was adjusted, the cell suspension was added to a 96-well plate at 100 μl per well, incubation was performed at 37° C. and with 5% CO2 to reach a cell density of 5000 cells/well. The solution was changed and the experimental samples at different concentration gradients were added (as the following Table 4), a culture solution containing no experiment sample was used as the control. Incubation was performed with 5% CO2 and at 37° C. for 24 hours, 20 μl of MTT solution (5 mg/ml, i.e. 0.5% MTT) was added into each well, the cultivation was continued for four hours. The drug reacted with MTT sufficiently, firstly centrifugation was performed, then the culture solution was abandoned, and rinsing was performed with PBS carefully for 2-3 times, then a culture solution containing MTT was added. The cultivation was terminated, the culture solution in the well were drawn off carefully. […] The absorbance values of each well were measured in an enzyme linked immunosorbent detector at OD value of 490 nm.
# Cell survival rate=(determined well OD value−blank control OD value)/(OD value in the cell comparative group−OD value in the blank control)×100%.
# tyrosinase = target: T1, tyrosinase (Mus musculus, UniProt P11344); assay: Determination of tyrosinase inhibition rate in B16 cells; details: action of 72 hours, inhibition rate increased with amount
# T1 construct: endogenous in cells; host or cells: B16 cells
# T1 sequence (P11344 19-533): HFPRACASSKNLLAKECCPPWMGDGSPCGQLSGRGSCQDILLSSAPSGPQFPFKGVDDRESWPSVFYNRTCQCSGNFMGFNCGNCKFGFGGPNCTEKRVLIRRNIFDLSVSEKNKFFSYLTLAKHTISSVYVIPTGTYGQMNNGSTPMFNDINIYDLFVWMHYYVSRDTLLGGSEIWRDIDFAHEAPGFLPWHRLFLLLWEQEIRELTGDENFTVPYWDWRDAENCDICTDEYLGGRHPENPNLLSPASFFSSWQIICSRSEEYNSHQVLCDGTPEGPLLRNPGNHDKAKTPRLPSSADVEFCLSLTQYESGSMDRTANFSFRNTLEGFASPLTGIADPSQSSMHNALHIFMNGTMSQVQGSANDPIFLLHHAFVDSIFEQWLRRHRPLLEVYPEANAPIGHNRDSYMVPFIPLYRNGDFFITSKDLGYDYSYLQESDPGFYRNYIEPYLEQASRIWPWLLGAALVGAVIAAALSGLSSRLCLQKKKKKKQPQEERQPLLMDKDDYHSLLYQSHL
# Experimental: B16 cells at a logarithmic phase were collected, trypsin was adopted for digestion, the digestion was terminated with a complete medium (DMEM high sugar medium+10% fetal calf serum), counting was performed; the cell suspension was adjusted to 10×10^4 cells/mL, and inoculated into a 96-well culture plate, each well was added with 100 μl of cell suspension, the marginal wells were filled with sterile PBS, and cultivated in an incubator at 37° C. and with 5% CO2 overnight, the medium (DMEM high sugar medium+10% fetal calf serum) was drawn out, 100 μl of the experiment sample was added into each well, and a control group (namely, the well without the sample but with only medium) was set. After action of 72 hours, 50 μl of 1% TritionX-100 solution was added for cell lysis, quickly put into an ultra-low temperature freezer at −80° C. and cryopreserved for one hour, subsequently the cryopreserved solution was thawed at room temperature, such that tyrosinase within the cells were released outside the cells, pre-warming was performed to 37° C., then 50 μl of 1% levodopa solution was added to produce a mixture, the mixture was reacted at 37° C. for 2 hours, the absorbance value in each well was determined at the wavelength of 490 nm, for every sample concentration, more than 3 subwells were set, and averaged. […]
# B16 cells = assay: Determination of melanin content in B16 cells; details: positive control 33 mM
# Experimental: B16 cells in good state at a logarithmic phase were collected, trypsin was adopted for digestion, the digestion was terminated with a complete medium, and counting was performed; the prepared cell suspension was adjusted to 5×10^4 cells/ml and added into a 6-well culture plate, 2 ml of cell suspension was added into each well, cultivation was performed in an incubator at 37° C. and with 5% CO2 overnight; the medium was drawn out, 2 ml of cannabis extracts with different concentrations were added into each well, after action of 48 hours, the medium was drawn out and abandoned, trypsin was adopted for digestion, and the product was collected into a centrifugal tube, centrifugation was performed to obtain a cell precipitate, the cell precipitate was washed with PBS for one time, a 1M NaOH (containing 10% DMSO) solution was added for cell lysis, and the lysed cells were put in a 80° C. water bath kettle for water bath for 30 minutes; uniform shaking and mixing were performed, and the processed cells were drawn into to a 96-well plate; and the absorbance value was determined at the wavelength of 245 nm.
# Relative melanin content=(mean absorbance value in each well under every concentration−mean absorbance value in the control group)[…].
smiles,measurement,setting,value
"C=C(C)[C@@H]1CCC(C)=C[C@H]1c1c(O)cc(CCCCC)cc1O [CBD, Cannabidiol]",cell proliferation (eliminating the influence of the cannabis seed oil),[1],promote cell proliferation to a certain extent
same,inhibitory effect against tyrosinase (inhibition rate),tyrosinase,effective inhibitory effect against tyrosinase
"OC[C@H]1O[C@@H](Oc2ccc(O)cc2)[C@H](O)[C@@H](O)[C@@H]1O [arbutin, Arbutin]",melanin content within the B16 cells,B16 cells,79.24%
